Measured values reported in US20250197820A1, “NUCLEIC ACID POLYMERASE AND ITS USE IN PRODUCING NON-DNA NUCLEOTIDE POLYMERS” (UNITED KINGDOM RESEARCH AND INNOVATION, priority 2021, published 2025).

Assays:
TGK = TGK (Thermococcus gorgonarius, UniProt P56689, A485L/D141A/E143A/E664K/V93Q/Y409G); conditions: ATP incorporation from an RNA primer; cited from earlier work
2M = target: T1, 2M (Thermococcus gorgonarius, UniProt P56689, A485L/D141A/E143A/E664K/F545L/I521L/K592A/T541G/V93Q/Y409G); test: Steady-state kinetics of single nucleotide incorporation by 2M; type: biochemical; conditions: single nucleotide incorporation from 2′OMe-RNA primer
T1 construct: made in house; host or cells: E. coli BL21 CodonPlus-RIL
Protocol: Steady-state kinetic parameters for NTP incorporation by 2M were determined by performing initial velocity measurements of single incorporations of either ATP, 2′OMe-ATP, or MOE-ATP. To generate the 2′OMe-RNA/DNA substrate, a 20-mer 2′OMe-RNA primer FD was 5′ 6-carboxyfluorescein end-labeled and annealed to the 52-mer DNA template BFL770 (Supplementary Table 1) at a 1:1.2 molar ratio. The reactions were performed at 50° C. in a mixture containing 1× Thermopol buffer, 6 mM Mg^2+, 100 nM 2′OMe-RNA/DNA substrate, and at NTP concentrations ranging from 0.5-250 μM. Enzyme concentrations and reaction times were selected to maintain initial velocity conditions. The 25 μL reactions were stopped by addition of a quenching solution containing 100 mM EDTA, 80% deionized formamide, 0.25 mg/ml bromophenol blue and 0.25 mg/ml xylene cyanol. Moreover, less than 20% of the primers were extended as required for steady-state conditions.
Product and substrate were separated on a 22% denaturing (8 M urea) polyacrylamide gel. The resulting bands were quantified using a Cytiva Typhoon RGB imager in fluorescence mode. Steady-state kinetic parameters (KM, kcat) were determined by fitting the data to the Michaelis-Menten equation. The data are the means and standard error from three independent experiments.

[1] = tested on: ‘wild type’ (wt) KRAS RNA; test: 2′OMezyme RNA cleavage in trans, wild type KRAS substrate; type: biochemical, human; conditions: differs from G12D substrate by one nucleotide (G35)
Protocol: (§1) RNA cleavage assays were performed in trans using PAGE-purified 2′OMezymes and RNA substrates, annealed as described above and incubated at 37° C. in 2′OMezyme selection buffer (30 mM EPPS pH 7.4, 150 mM KCl, 1 mM MgCl2), or 30 mM EPP pH 8.5, 150 mM KCl, 25 mM MgCl2, supplemented with RNasin ribonuclease inhibitor (Promega, USA). In Mg^2+ titration experiments, 2′OMezyme selection buffer was supplemented with additional magnesium chloride (MgCl2); in pH titration experiments, 150 mM KCl, 1 mM MgCl2 plus 50 mM buffer as follows was used: […] (pH 5.0-6.0), EPPS (pH 6.5-8.75), CHES (pH 9.0-12.0). For magnesium free reactions, 30 mM EPPS pH 7.4, 150 mM KCl, 5 mM EDTA was used.

Sub_KRas_12 [G12D] RNA = test: 2′OMezyme RNA cleavage in trans, KRAS G12D substrate; type: biochemical, human
Protocol: as §1
Pseudo first-order reaction rates (kobs) under single-turnover pre-steady-state (Km/kcat) conditions were determined from three independent reactions with (separately annealed) catalyst at 5 μM and substrate at 1 μM, as described previously^8, fit using Prism 9 (GraphPad Software, USA). For multiple turnover reactions, 1 μM substrate was reacted with 10 nM 2′OMezyme at 37° C. in 2′OMezyme selection buffer.

[2] = 2′OMezyme serum stability; type: in vitro ADME; conditions: 37° C., 120 h
Protocol: PAGE-purified 2′OMezyme “R15/5-K” and DNAzyme “1023_KRasC” were annealed in water as described above, then incubated (at 5 μM) at 37° C. in 95% human serum (MilliporeSigma, Germany). Full-length catalyst remaining was quantified on Urea-PAGE gels stained with SYBR Gold (ThermoFisher Scientific, USA).

[3] = tested on: 2.1 kb KRAS transcript (Sub_KRas_ORF); test: 2′OMezyme cleavage of long KRAS transcripts; type: biochemical, human; conditions: 37° C., pH 7.4, 1 mM Mg^2+, 65 h
Protocol: Human cDNA clones for KRAS (transcript variant b, accession no. NM_004985) and CTNNB1 (transcript variant 1, accession no. NM_001904) in plasmids pCMV6-XL6 (SP6 promoter) (cat. no. SC109374) and pCMV6-XL5 (T7 promoter) (cat. no. SC107921), respectively, were obtained from OriGene, USA. Site-directed mutagenesis was performed using a QuikChange II kit (Agilent Technologies, USA), according to the manufacturer's protocol; KRAS mutations G12D (c.35G>A) and G13D ([…]), and CTNNB1 mutation S33Y (c.98C>A) were introduced using primer sets shown in Supplementary Table 2 (“Quik_KRAS_G12D_Fw/Rev”, “Quik_KRAS_G13D_Fw/Rev” or “Quik_CTNNB_G12D_Fw/Rev”) and resulting plasmids cloned and verified by Sanger sequencing (Source Biosciences, UK). Long RNA substrates equivalent to full KRAS and CTNNB1 mRNA transcripts bearing 5′ fluorescein (“Sub_KRas_ORF” and “Sub_CTNNB1_ORF”, respectively) were prepared using HiScribe T7 and SP6 RNA synthesis kits (NEB, USA), according to the manufacturer's protocol, with a 4:1 ratio of 5′-Fluorescein-ApG dinucleotide (IBA Life Sciences, Germany) to GTP, using template plasmids linearised using XmaI (NEB, USA). Reactions were subsequently treated with TURBO DNase (Invitrogen/Thermo Fisher Scientific, USA) and RNA transcripts purified using RNeasy mini kits (Qiagen, Germany). […]

[4] = tested on: 901 bp DNA template (sfGFP under T7 promoter); test: 2′OMe-RNA transcription reactions with RGVG-M6; type: biochemical; conditions: compared to 2M; dependent on high concentrations of Mn2+
Protocol: DNA template for transcription reactions was created by PCR-amplifying a 901-bp region on a plasmid encoding sfGFP under a T7 promoter. The PCR used 0.5 μM forward primer “5T7.for” and 0.5 μM reverse primer “pCUN_Do.rev”; cycling conditions were 95° C. for 30 s, 30×[95° C. for 10 s, 69° C. for 30 s, 72° C. for 30 s], 72° C. for 2 min.
For very permissive conditions, reactions comprised 125 nM DNA template, 200 nM T7 RNAP WT or its variant RGVG-M613, 1.5 mM MnCl2, 7.5 mM each NTP or 1 mM each 2′OMe-NTP, 0.1 U yeast inorganic pyrophosphatase. In order to compare the yield of 2′OMe-RNA synthesis by 2M and RGVG-M6, reactions were run under equimolar nucleic acid input of 0.5 pmol primer (2M) and 0.5 pmol DNA template (50 nM, RGVG-M6), and 50 nM RGVG-M6 polymerase with a polymerase:template ratio of 1:1 as described in 13. Reactions were treated with Turbo DNase and Proteinase K followed by denaturing PAGE.

Molecule: Nc1ncnc2c1ncn2[C@@H]1O[C@H](COP(=O)(O)OP(=O)(O)OP(=O)(O)O)[C@@H](O)[C@H]1O [ATP]
- Km (TGK): 13.3 µM
- Vmax/kcat values for incorporation (2M): essentially identical

Molecule: R15/5-K: RNA endonuclease 2′OMezyme (all 2′OMe-RNA) specific for KRAS RNA c.26 - 44, G12D allele (CCUACGCACGUGACCCAUGACGGACAGAGAAGGCAUGACAGACUGCUCCAA; all 2'-O-methyl, backbone not given here)
- cleavage of wt KRAS RNA [1]: essentially no cleavage
- multiple-turnover catalysis (Sub_KRas_12 [G12D] RNA; 10 nM 2′OMezyme, 1 μM substrate): capable of multiple-turnover catalysis
- kcat (Sub_KRas_12 [G12D] RNA; 1 mM Mg^2+, pH 7.4, 37° C., single turnover): 3.06e-05 s⁻¹
- reduction of single-turnover rate compared with optimal conditions (Sub_KRas_12 [G12D] RNA; 1 mM Mg^2+, pH 7.4 vs 25 mM Mg^2+, pH 8.5): approximately 50%
- kcat (Sub_KRas_12 [G12D] RNA; 5 mM EDTA, pH 7.4, 37° C. (absence of Mg^2+)): 2.8e-07 s⁻¹
- kcat (Sub_KRas_12 [G12D] RNA; 25 mM Mg^2+, pH 8.5, 37° C., single turnover, 5 μM 2′OMezyme, 1 μM substrate): 6.67e-05 s⁻¹
- activity retained (Sub_KRas_12 [G12D] RNA; quasi-physiological low-Mg^2+ regime (0.5-1 mM Mg^2+)): 70-80%
- degradation (or loss in activity) after incubation in human serum [2]: no significant degradation
- cleavage of wt KRAS transcript or G13D (c.38G>A) transcript [3]: virtually no cleavage
- cleavage of long structured KRAS transcript bearing G12D ([3]; G12D (c.35G>A)): able to invade and cleave

B1: RGVG-M6: T7 RNA polymerase variant (P266L, S430P, N433T, E593G, S633P, Y639V, V685A, H784G, F849I, F880Y) (protein, UniProt P00573 1-883, looked up, variant P266L S430P N433T E593G S633P Y639V V685A H784G F849I F880Y)
T7 RNA polymerase: MNTINIAKNDFSDIELAAIPFNTLADHYGERLAREQLALEHESYEMGEARFRKMFERQLKAGEVADNAAAKPLITTLLPKMIARINDWFEEVKAKRGKRPTAFQFLQEIKPEAVAYITIKTTLACLTSADNTTVQAVASAIGRAIEDEARFGRIRDLEAKHFKKNVEEQLNKRVGHVYKKAFMQVVEADMLSKGLLGGEAWSSWHKEDSIHVGVRCIEMLIESTGMVSLHRQNAGVVGQDSETIELAPEYAEAIATRAGALAGISLMFQPCVVPPKPWTGITGGGYWANGRRPLALVRTHSKKALMRYEDVYMPEVYKAINIAQNTAWKINKKVLAVANVITKWKHCPVEDIPAIEREELPMKPEDIDMNPEALTAWKRAAAAVYRKDKARKSRRISLEFMLEQANKFANHKAIWFPYNMDWRGRVYAVPMFTPQGNDMTKGLLTLAKGKPIGKEGYYWLKIHGANCAGVDKVPFPERIKFIEENHENIMACAKSPLENTWWAEQDSPFCFLAFCFEYAGVQHHGLSYNCSLPLAFDGSCSGIQHFSAMLRDEVGGRAVNLLPSETVQDIYGIVAKKVNEILQADAINGTDNGVVTVTDENTGEISEKVKLGTKALAGQWLAYGVTRSVTKRPVMTLAVGSKEFGFRQQVLEDTIQPAIDSGKGLMFTQPNQAAGYMAKLIWESASVTVVAAVEAMNWLKSAAKLLAAEVKDKKTGEILRKRCAVHWVTPDGFPVWQEYKKPIQTRLNLMFLGQFRLQPTINTNKDSEIDAHKQESGIAPNFVGSQDGSHLRKTVVWAHEKYGIESFALIHDSFGTIPADAANLFKAVRETMVDTYESCDVLADFYDQIADQLHESQLDKMPALPAKGNLNLRDILESDYAFA
- 2′OMe-RNA synthesis activity (in words) [4]: modest
